According to ChEMBL document CHEMBL6177963, “Development of acylhydrazone linked thiazoles as non-covalent dual inhibitors of SARS-CoV-2 proteases” (Eur J Med Chem, 2025):
Calls of active or inactive are those of the source. The rule behind the calls is not given here.

Columns and labels:
[1] = system: SARS-CoV-2; test: Anti-viral activity against SARS-CoV-2 BavPat1 infected in Vero E6 cells assessed as inhibition of viral RNA replication; assay type: functional, organism-based; details: Severe acute respiratory syndrome coronavirus 2, BavPat1, Vero C1008
[2] = Inhibition of SARS-CoV-2 MPro using Dabcyl-KTSAVLQ/SGFRKME- (Edans) as substrate by FRET assay; set-up: species or system Severe acute respiratory syndrome coronavirus 2
[3] = molecular target: Replicase polyprotein 1ab (Severe acute respiratory syndrome coronavirus 2, UniProt P0DTD1); test: Inhibition of recombinant SARS-CoV-2 PLpro using TLKGGI-AMC as substrate assessed as assessed as inhibition constant ny measuring fluorescence signal measured after 15 mins
[4] = molecular target: Replicase polyprotein 1ab (Severe acute respiratory syndrome coronavirus 2) (UniProt P0DTD1); test: Inhibition of recombinant SARS-CoV-2 PLpro using TLKGGI-AMC as substrate assessed as assessed as inhibition constant ny measuring fluorescence signal at 10 uM measured after 15 mins relative to control
[5] = system: SARS-CoV-2; test: Antiviral activity against SARS-CoV-2 infected in African green monkey Vero E6 cells assessed as viral reduction by measuring viral RNA measured up to 72 hrs by RT-PCR analysis; assay type: functional, organism-based; details: Severe acute respiratory syndrome coronavirus 2, SARS-CoV-2, Vero C1008, 72 h
[6] = molecular target: Replicase polyprotein 1ab (Severe acute respiratory syndrome coronavirus 2) (UniProt P0DTD1); test: Binding affinity to SARS-CoV-2 PLpro assessed as thermal stability by measuring melting temperature of half of the proteins unfolded by differential scanning fluorimetry (DSF) (reference value: 45.79 degC)
[7] = molecular target: Chymotrypsin (Homo sapiens) (UniProt Q99895+P17538+P40313+Q6GPI1); test: Inhibition of Chymotrypsin (unknown origin) assessed as BSA digestion; assay type: protein assay
[8] = Cytotoxicity against human HEK293 cells assessed as cell viability measured after 48 hrs by MTT assay; assay type: toxicity, cell-based
[9] = Cytotoxicity against African green monkey Vero E6 cells assessed as cell viability at 100 uM measured after 48 hrs by MTT assay relative to control; assay type: toxicity, cell-based, Vero C1008; details: chlorocebus sabaeus, read-out: Activity
[10] = system: SARS-CoV-2; test: Antiviral activity against SARS-CoV-2 infected in African green monkey Vero E6 cells assessed as viral load reduction at 4 uM by measuring viral RNA measured up to 72 hrs by RT-PCR analysis relative to control; assay type: functional, Severe acute respiratory syndrome coronavirus 2, Vero C1008; set-up: scale not given: the % may be the effect or the level left
[11] = system: SARS-CoV-2; test: Antiviral activity against SARS-CoV-2 infected in African green monkey Vero E6 cells assessed as viral load reduction at 0.125 uM by measuring viral RNA measured up to 72 hrs by RT-PCR analysis relative to control; assay type: functional, Severe acute respiratory syndrome coronavirus 2, Vero C1008; set-up: scale not given: the % may be the effect or the level left
[12] = system: Severe acute respiratory syndrome coronavirus 2; test: Non-covalent inhibition of SARS-CoV-2 MPro by Lineweaver-Burk Plot analysis
[13] = molecular target: Replicase polyprotein 1ab (Severe acute respiratory syndrome coronavirus 2) (UniProt P0DTD1); test: Non-covalent inhibition of SARS-CoV-2 PLpro by Lineweaver-Burk Plot analysis
[14] = system: Severe acute respiratory syndrome coronavirus 2; test: Binding affinity to SARS-CoV-2 MPro assessed as thermal stability by measuring melting temperature of half of the proteins unfolded by differential scanning fluorimetry (DSF) (reference value: 52.46 degC)
[15] = molecular target: Replicase polyprotein 1ab (Severe acute respiratory syndrome coronavirus 2) (UniProt P0DTD1); test: Covalent binding affinity to SARS-CoV-2 PLpro assessed as change in molecular weight by Mass spectrometry
[16] = molecular target: Replicase polyprotein 1ab (Severe acute respiratory syndrome coronavirus 2) (UniProt P0DTD1); test: Non-covalent binding affinity to SARS-CoV-2 PLpro assessed change in molecular weight by Mass spectrometry
[17] = system: Severe acute respiratory syndrome coronavirus 2; test: Reversible inhibition of SARS-CoV-2 MPro assessed as enzyme activity by dialysis; set-up: scale not given: the % may be the effect or the level left
[18] = molecular target: Replicase polyprotein 1ab (Severe acute respiratory syndrome coronavirus 2) (UniProt P0DTD1); test: Reversible inhibition of SARS-CoV-2 PLpro assessed as enzyme activity by dialysis; set-up: scale not given: the % may be the effect or the level left
[19] = Acute toxicity in rat assessed as change in body weight at 175 to 2000 mg/kg, po measured for 14 days; assay type: organism-based; details: in vivo, 336 h, dose 175-2000 mg/kg, time 14 day
[20] = Acute toxicity in rat assessed as morphological changes in liver in portal, periportal, and centrilobular regions at 175 to 2000 mg/kg, po measured for 14 days by Hand E staining based analysis; assay type: organism-based; details: in vivo, 336 h, dose 175-2000 mg/kg, time 14 day
[21] = Acute toxicity in rat assessed as toxicity at 175 to 2000 mg/kg, po measured for 14 days; assay type: organism-based; details: in vivo, dose 175-2000 mg/kg, time 14 day
[22] = system: Human coronavirus 229E; test: Antiviral activity against HCoV-229E infected in human Huh7.5 Fluc cells; assay type: functional, organism-based

CN(/N=C/c1ccccc1C(=O)O)c1ncc(-c2ccccc2Cl)s1
EC50 [1]: 14 nM

N#Cc1ccc2nc(N3C(=O)CSC3c3c(F)cccc3Cl)sc2c1 (centres undefined)
IC50 [2]: 10 nM

Cc1ccc(C(=O)NNc2nc(-c3ccc(C)cc3)cs2)cc1
Ki [3]: Not_active | inhibition [4]: < 50%

Cc1ccc(-c2csc(NNC(=O)c3ccc(F)cc3)n2)cc1
EC50 [5]: 38 nM | Ki ([3]; read-out: Ki): 340 nM | Tm [6]: 47.1 °C | inhibition [7]: inactive | IC50 at 48 h [8]: 25.3 µM | viability at 48 h, 100 µM [9]: 92.1% | Activity [10]: >70% | Activity [11]: >70%

CCOC(=O)c1sc(NNC(=O)c2cccs2)nc1C
EC50 [5]: 118 nM | Ki ([3]; read-out: Ki): 230 nM | Activity [12]: Active | Activity [13]: Active | Tm [14]: 49.8 °C | Tm [6]: 41.1 °C | inhibition [7]: inactive | IC50 at 48 h [8]: 45.8 µM | viability at 48 h, 100 µM [9]: 87.9% | Activity [10]: >70%

Cc1ccc(-c2csc(NNC(=O)c3ccc(Br)cc3)n2)cc1
Ki [3]: Not_active | inhibition [4]: < 50%

O=C(NNc1nc(-c2ccc(Br)cc2)cs1)c1ccccc1
Ki [3]: Not_active | inhibition [4]: < 50%

O=C(NNc1nc(-c2ccc(Br)cc2)cs1)c1ccc(Cl)cc1
Ki ([3]; read-out: Ki): 1720 nM | inhibition [7]: inactive | viability at 48 h, 100 µM [9]: 86.7%

CCOC(=O)c1sc(NNC(=O)/C=C/c2ccccc2)nc1C
EC50 [5]: 848 nM | Ki ([3]; read-out: Ki): 200 nM | Activity [15]: inactive | Activity [16]: Active | Activity [17]: > 90% | Activity [18]: > 90% | Activity [12]: Active | Activity [13]: Active | Tm [14]: 49.9 °C | Tm [6]: 41.5 °C | inhibition [7]: inactive | IC50 at 48 h [8]: 180 µM | viability at 48 h, 100 µM [9]: 87.5% | Activity [10]: 56% | Activity ([11]; Severe acute respiratory syndrome coronavirus 2, Vero C1008): inactive | Activity [19]: Non-toxic | Activity [20]: Non-toxic | LD50 at 336 h [21]: > 2000 mg/kg

CC(=O)Oc1ccccc1C(=O)Nc1ncc([N+](=O)[O-])s1 [NITAZOXANIDE]
EC50 [1]: 7480 nM

Clc1nc2ccccc2cc1/C=N/Nc1nc(-c2ccccc2)cs1
Ki [3]: Not_active | inhibition [4]: < 50%

CCOC(=O)c1sc(NNC(=O)c2ccc(Br)cc2)nc1C
EC50 [5]: 116 nM | Ki ([3]; read-out: Ki): 500 nM | Activity [12]: Active | Activity [13]: Active | Tm [14]: 49.7 °C | Tm [6]: 41.5 °C | inhibition [7]: inactive | IC50 at 48 h [8]: 219 µM | viability at 48 h, 100 µM [9]: 86.9% | Activity [10]: >80%

O=C(O)c1ccccc1/C=N/Nc1ncc(-c2ccccc2Cl)s1
EC50 [1]: 1590 nM

O=C(NNc1nc(-c2ccc(Cl)cc2)cs1)c1ccc(F)cc1
EC50 [5]: 41 nM | Ki ([3]; read-out: Ki): 180 nM | Tm [6]: 47.1 °C | IC50 at 48 h [8]: 41.2 µM | viability at 48 h, 100 µM [9]: 86.5% | Activity [10]: >80%

Oc1ccc(/C=N/Nc2nc(-c3ccc(Cl)cc3)cs2)cc1
Ki ([3]; read-out: Ki): 290 nM | Activity [13]: Active | Tm [14]: 51.4 °C | Tm [6]: 44.3 °C | inhibition [7]: inactive | IC50 at 48 h [8]: 194 µM | viability at 48 h, 100 µM [9]: 91%

O=C(NNc1ncc(-c2ccc(Cl)cc2)s1)c1ccc2ccccc2c1
Ki ([3]; read-out: Ki): 2130 nM

Cc1ccc(-c2csc(NNC(=O)c3ccc(Cl)cc3)n2)cc1
Ki [3]: Not_active | inhibition [4]: < 50%

O=C(NNc1nc(-c2ccc(Br)cc2)cs1)c1ccc([N+](=O)[O-])cc1
Ki ([3]; read-out: Ki): 4220 nM | inhibition [7]: inactive | viability at 48 h, 100 µM [9]: 99.5%

C=C1NC(=O)[C@]2(C)CSC(=N2)c2csc(n2)[C@]2(C)CSC(=N2)C([C@@H](C)CC)NC(=O)[C@@H](C)NC(=O)/C(=C\C(C)C)COC(=O)c2csc(n2)[C@H](C(C)C)N(C)C(=O)[C@H](COC)NC1=O (some centres undefined)
IC50 [22]: 2390 nM

O=C(NNc1ncc(-c2ccc(Cl)cc2)s1)c1cccc(Cl)c1
Ki ([3]; read-out: Ki): 4230 nM

CCOC(=O)c1sc(NNC(=O)c2ccc(F)cc2)nc1C
Ki [3]: Not_active | inhibition [4]: < 50%
